Structures can show the parent of a compound that is named as a salt. Where two headings read alike, the source gives them in different places.
How the values were obtained:
Assay in all cases: Post-emergence efficacy, glasshouse, evaluated after 13 days
Assay type in all cases: in vivo
[1] = tested on: Chenopodium album (CHEAL); settings: Chenopodium album, 312 h, read-out: Control of weed species CHEAL (100=total damage to plant; 0=no damage to plant)
Method: (§1) Seeds of a variety of test species were sown in standard soil in pots. After cultivation for 14 days (post-emergence) under controlled conditions in a glasshouse (at 24/16° C., day/night; 14 hours light; 65% humidity), the plants were sprayed with an aqueous spray solution derived from the dissolution of the technical active ingredient formula (I) in a small amount of acetone and a special solvent and emulsifier mixture referred to as IF50 (11.12% Emulsogen EL360 TM+44.44% N-methylpyrrolidone+44.44% Dowanol DPM glycol ether), to create a 50 g/l solution which was then diluted to required concentration using 0.25% or 1% Empicol ESC70 (Sodium lauryl ether sulphate)+1% ammonium sulphate as diluent.
(§2) The test plants were then grown in a glasshouse under controlled conditions (at 24/16° C., day/night; 14 hours light; 65% humidity) and watered twice daily. After 13 days the test was evaluated (100=total damage to plant; 0=no damage to plant).
(§3) Ipomoea hederacea (IPOHE), Euphorbia heterophylla (EPHHL), Chenopodium album (CHEAL), Amaranthus palmeri (AMAPA), Lolium perenne (LOLPE), Digitaria sanguinalis (DIGSA), Eleusine indica (ELEIN), Echinochloa crus-galli (ECHCG), Setaria faberi (SETFA)

Eleusine indica (ELEIN) = settings: Eleusine indica, 312 h, read-out: Control of weed species ELEIN (100=total damage to plant; 0=no damage to plant)
Method: as §1, §2, §3

Setaria faberi (SETFA) = settings: Setaria faberi, 312 h, read-out: Control of weed species SETFA (100=total damage to plant; 0=no damage to plant)
Method: as §1, §2, §3

[2] = tested on: Amaranthus palmeri (AMAPA); settings: Amaranthus palmeri, 312 h, read-out: Control of weed species AMAPA (100=total damage to plant; 0=no damage to plant)
Method: as §1, §2, §3

[3] = tested on: Digitaria sanguinalis (DIGSA); settings: Digitaria sanguinalis, 312 h, read-out: Control of weed species DIGSA (100=total damage to plant; 0=no damage to plant)
Method: as §1, §2, §3

[4] = tested on: Euphorbia heterophylla (EPHHL); settings: Euphorbia heterophylla, 312 h, read-out: Control of weed species EPHHL (100=total damage to plant; 0=no damage to plant)
Method: as §1, §2, §3

[5] = tested on: Echinochloa crus-galli (ECHCG); settings: Echinochloa crus-galli, 312 h, read-out: Control of weed species ECHCG (100=total damage to plant; 0=no damage to plant)
Method: as §1, §2, §3

[6] = tested on: Ipomoea hederacea (IPOHE); settings: Ipomoea hederacea, 312 h, read-out: Control of weed species IPOHE (100=total damage to plant; 0=no damage to plant)
Method: as §1, §2, §3

Lolium perenne (LOLPE) = settings: Lolium perenne, 312 h, read-out: Control of weed species LOLPE (100=total damage to plant; 0=no damage to plant)
Method: as §1, §2, §3

[7] = post-emergence application, 500 g/Ha, evaluated after 13 days

Compound	pest or weed control at 500 g/ha [1, 7]	pest or weed control at 500 g/ha (Eleusine indica (ELEIN); [7])	pest or weed control at 500 g/ha (Setaria faberi (SETFA); [7])	pest or weed control at 500 g/ha [2, 7]	pest or weed control at 500 g/ha [3, 7]	pest or weed control at 500 g/ha [4, 7]	pest or weed control at 500 g/ha [5, 7]	pest or weed control at 500 g/ha [6, 7]	pest or weed control at 500 g/ha (Lolium perenne (LOLPE); [7])	pest or weed control at 500 g/ha ([1]; post-emergence)	pest or weed control at 500 g/ha (Eleusine indica (ELEIN); post-emergence)	pest or weed control at 500 g/ha (Setaria faberi (SETFA); post-emergence)	pest or weed control at 500 g/ha ([2]; post-emergence)	pest or weed control at 500 g/ha ([3]; post-emergence)	pest or weed control at 500 g/ha ([4]; post-emergence)	pest or weed control at 500 g/ha ([5]; post-emergence)	pest or weed control at 500 g/ha ([6]; post-emergence)	pest or weed control at 500 g/ha (Lolium perenne (LOLPE); post-emergence)
O=C(O)CC[n+]1ccc(C(=O)NCc2ccc(F)cc2)cn1 [Compound A22]	90%	60%	50%	100%	60%	90%	50%	40%	40%									
O=C(NCc1ccc(F)cc1)c1cc[n+](CCS(=O)(=O)[O-])nc1 [Compound A23]	70%	60%	70%	100%	60%	60%	70%	50%	20%									
O=C(O)CC[n+]1ccc(C(=O)N2CCCCC2)cn1 [Compound A24, 3-[4-(piperidine-1-carbonyl)pyridazin-1-ium-1-yl]propanoic acid trifluoroacetate]										90%	60%	60%	100%	70%	90%	60%	30%	30%
O=C(NCC1CC1)c1cc[n+](CCS(=O)(=O)[O-])nc1 [Compound A25]	90%	90%	80%	100%	80%	80%	70%	60%	60%									
O=C(O)CC[n+]1ccc(C(=O)N2CCCC2)cn1 [Compound A26]	100%	80%	100%	100%	100%	90%	90%	40%	90%									
O=C(c1cc[n+](CCS(=O)(=O)[O-])nc1)N1CCCCC1 [Compound A27]	40%	10%	40%	70%	40%	70%	40%	30%	30%									
O=C(c1cc[n+](CCS(=O)(=O)[O-])nc1)N1CCOCC1 [Compound A28]	90%	70%	70%	100%	70%	80%	50%	60%	60%									
O=C(O)CC[n+]1ccc(C(=O)N2CCOCC2)cn1 [Compound A29]	90%	90%	90%	100%	90%	100%	90%	50%	50%									
O=C(NC1CC1)c1cc[n+](CCS(=O)(=O)[O-])nc1 [Compound A30]	100%	80%	70%	100%	70%	70%	40%	70%	70%									
O=C(O)CC[n+]1ccc(C(=O)NC2CC2)cn1 [Compound A31]	100%	100%	100%	100%	100%	100%	70%	30%	70%									
CC(C)N(C(=O)c1cc[n+](CCC(=O)O)nc1)C(C)C [Compound A32]	20%	10%	30%	50%	20%	40%	30%	10%	10%									
O=C(O)CC[n+]1ccc(C(=O)Nc2ccccc2)cn1 [Compound A33]	80%	90%	60%	100%	60%	50%	60%	30%	70%									
CC(C)N(C)C(=O)c1cc[n+](CCC(=O)O)nc1 [Compound A34]	40%	20%	70%	100%	70%	70%	30%	20%	30%									
CC(C)CNC(=O)c1cc[n+](CCC(=O)O)nc1 [Compound A35]	90%	100%	90%	100%	80%	100%	60%	50%	70%									
O=C(NCC(F)(F)F)c1cc[n+](CCS(=O)(=O)[O-])nc1 [Compound A36]	90%	60%	60%	100%	60%	50%	30%	40%	20%									
CC(C)CNC(=O)c1cc[n+](CCS(=O)(=O)[O-])nc1 [Compound A37]	80%	60%	70%	100%	70%	70%	50%	50%	50%									

From patent US20210403435A1, “HERBICIDAL COMPOUNDS” (SYNGENTA CROP PROTECTION AG, priority 2018, published 2021)
